From the Bradley open melting point set (2014)
“And” between values parts separate entries of the source, which are not always exact repeats. Equal values may be shown once.

With `NC(=O)c1cc(F)cc(F)c1` [3,5-difluorobenzamide] as the molecule, how does the melting point read?
Its melting point is 156 °C.

With `O=C(O)c1cc(F)cc(F)c1O` [3,5-difluorosalicylic acid] as the molecule, how does the melting point read?
Its melting point is 189 °C.

Which melting point does the source give for `COc1cc(C=O)cc(OC)c1` [3,5-dimethoxybenzaldehyde] here?
Its melting point is 47 °C.

Which melting point does the source give for `Cc1cc(C)cc(C=O)c1` [3,5-dimethylbenzaldehyde] here?
The melting point was 9 °C.

For `O=C(Cl)c1cc([N+](=O)[O-])cc([N+](=O)[O-])c1` [3,5-dinitrobenzoyl chloride], which melting point is on record?
The melting point was 67 °C.

Which melting point does the source give for `CC(=O)OC1CCC2C3CCC4CC(=C(C)C)CCC4(C)C3CCC12C` (stereo not drawn) [3-(1-methylethylidene)androstan-17-yl acetate] here?
Its melting point is 108 °C.

Which melting point does the source give for `CN1C(=O)c2ccccc2C1C=C(c1ccccc1)c1ccccc1` (stereo not drawn) [3-(2,2-Diphenylethenyl)-2-methylisoindolin-1-one] here?
Its melting point is 147 °C.

With `C#CCOc1c(Cl)cccc1Cl` [3-(2,6-dichlorophenoxy)-1-propyne] as the molecule, how does the melting point read?
The melting point was 44 °C.

Which melting point does the source give for `O=C(O)/C=C/c1cccc(B(O)O)c1` [3-(2-carboxyvinyl)benzeneboronic acid] here?
Its melting point is 218 °C.

Which melting point does the source give for `O=C(O)/C=C/c1ccco1` [3-(2-furyl)acrylic acid] here?
The melting point was 142 °C.

For `COc1ccccc1OCC(O)CO` (stereo not drawn) [3-(2-methoxyphenoxy)-1,2-propanediol], which melting point is on record?
The melting point was 81 °C.

Which melting point does the source give for `O=C(O)CCSc1ccc2ccccc2c1` [3-(2-naphthylthio)propionic acid] here?
The melting point was 105 °C.

Which melting point does the source give for `CN1C(=O)c2ccccc2C1C1=COCCC1` (stereo not drawn) [3-(3,4-Dihydro-2H-pyran-5-yl)-2-methylisoindolin-1-one] here?
The melting point was 95.5 °C.

For `O=C(O)CCc1cccc(Br)c1` [3-(3-bromophenyl)propionic acid], which melting point is on record?
The melting point was 64 °C.

Which melting point does the source give for `Oc1cccc(N2CCOCC2)c1` [3-(4-morpholinyl)phenol] here?
Its melting point is 130 °C.

Which melting point does the source give for `OB(O)c1cccc(CBr)c1` [3-(bromomethyl)benzeneboronic acid] here?
The melting point was 215 °C.

For `CCOC(=O)c1cccc(B(O)O)c1` [3-(ethoxycarbonyl)benzeneboronic acid], which melting point is on record?
The melting point was 137 °C.

For `O=S(=O)(c1ccccc1)c1ccsc1` [3-(phenylsulfonyl)thiophene], which melting point is on record?
Its melting point is 116 °C.

For `CC(C)(C)[Si](C)(C)Oc1cccc(B(O)O)c1` [3-(tert-butyldimethylsiloxy)benzeneboronic acid], which melting point is on record?
Its melting point is 89 °C.

For `O=C(O)/C=C/c1cccc(OC(F)(F)F)c1` [3-(trifluoromethoxy)cinnamic acid], which melting point is on record?
Its melting point is 94 °C.

For `CC(=O)C1=C2C=CCC=C2N=C1` [3-Acetylindole], which melting point is on record?
Its melting point is 194 °C.

Which melting point does the source give for `O=C1SCCN1C(=O)c1ccccc1` [3-Benzoyl-1,3-thiazolidin-2-one] here?
Its melting point is 121 °C.

With `O=C(O)c1cccc(Br)c1` [3-Bromobenzoic acid] as the molecule, how does the melting point read?
The melting point was 157 °C.

Which melting point does the source give for `Cc1ccc(N)cc1Cl` [3-Chloro-4-methylaniline] here?
The melting point was 26 °C.

With `Oc1cccc(Cl)c1` [3-Chlorophenol] as the molecule, how does the melting point read?
Its melting point is 33 °C and 32.6 °C.

Which melting point does the source give for `CC(=O)Nc1cccc(O)c1` [3-acetamidophenol] here?
The melting point was 148 °C.

Which melting point does the source give for `CC(=O)Oc1cccc(-c2ccccc2)c1` [3-acetoxybiphenyl] here?
Its melting point is 34 °C.

For `CC(=O)C1=CCC2(C)C(CCC3C4CCC(=O)C4(C)CCC32)C1` (stereo not drawn) [3-acetylandrost-2-en-17-one], which melting point is on record?
Its melting point is 153 °C.

For `CC(=O)c1cccc(B(O)O)c1` [3-acetylbenzeneboronic acid], which melting point is on record?
The melting point was 203 °C.

With `CC(N)CCc1ccccc1` (stereo not drawn) [3-amino-1-phenylbutane] as the molecule, how does the melting point read?
The melting point was -50 °C.

For `NC1=NN(c2ccccc2)CC1` [3-amino-4,5-dihydro-1-phenyl-1h-pyrazole], which melting point is on record?
Its melting point is 169 °C.

For `Nc1n[nH]cc1Br` [3-amino-4-bromo-1h-pyrazole], which melting point is on record?
Its melting point is 136 °C.

For `N#Cc1cccc(N)c1` [3-aminobenzonitrile], which melting point is on record?
The melting point was 52 °C.

For `Nc1cccc2c(=O)[nH][nH]c(=O)c12` [3-aminophthalhydrazide], which melting point is on record?
The melting point was 328 °C.

Which melting point does the source give for `COc1ccc(C(=O)O)cc1OCc1ccccc1` [3-benzyloxy-4-methoxybenzoic acid] here?
The melting point was 180 °C.

With `O=C(O)C(CBr)CBr` [3-bromo-2-(bromomethyl)propionic acid] as the molecule, how does the melting point read?
The melting point was 100 °C.

Which melting point does the source give for `CCOC1OC(C(N)=O)=CCC1Br` (stereo not drawn) [3-bromo-2-ethoxy-3,4-dihydro-2H-pyran-6-carboxamidato] here?
Its melting point is 142 °C.

For `Cc1ccc(C(=O)O)cc1Br` [3-bromo-4-methylbenzoic_acid], which melting point is on record?
Its melting point is 200 °C.

Which melting point does the source give for `NS(=O)(=O)c1cccc(Br)c1` [3-bromobenzenesulfonamide] here?
Its melting point is 156 °C.

For `[O-][n+]1cccc(Br)c1` [3-bromopyridine n-oxide], which melting point is on record?
The melting point was 35 °C.

For `Brc1cccnc1` [3-bromopyridine], which melting point is on record?
Its melting point is -27 °C.

For `OB(O)c1ccnc(F)c1Cl` [3-chloro-2-fluoropyridine-4-boronic acid], which melting point is on record?
Its melting point is 128 °C.

With `Cc1c(Cl)cccc1C#N` [3-chloro-2-methylbenzonitrile] as the molecule, how does the melting point read?
Its melting point is 22 °C.

For `O=C(CCCl)c1ccc(F)cc1` [3-chloro-4'-fluoropropiophenone], which melting point is on record?
Its melting point is 48 °C.

With `O=Cc1ccc(F)c(Cl)c1` [3-chloro-4-fluorobenzaldehyde] as the molecule, how does the melting point read?
The melting point was 27 °C.

Which melting point does the source give for `O=Cc1ccc(O)c(Cl)c1` [3-chloro-4-hydroxybenzaldehyde] here?
The melting point was 130 °C.

With `N#Cc1ccc(O)c(Cl)c1` [3-chloro-4-hydroxybenzonitrile] as the molecule, how does the melting point read?
The melting point was 148 °C.

Which melting point does the source give for `COc1cc(Cl)cc(B(O)O)c1` [3-chloro-5-methoxybenzeneboronic acid] here?
Its melting point is 187 °C.

Which melting point does the source give for `OB(O)c1cccc(Cl)c1` [3-chlorobenzeneboronic acid] here?
The melting point was 183 °C.

With `O=C(O)c1sc2ccccc2c1Cl` [3-chlorobenzo[b]thiophene-2-carboxylic acid] as the molecule, how does the melting point read?
The melting point was 266 °C.

Which melting point does the source give for `O=C(c1ccccc1)c1cccc(Cl)c1` [3-chlorobenzophenone] here?
The melting point was 83 °C.

For `Oc1cccc(Cl)c1` [3-chlorophenol], which melting point is on record?
Its melting point is 32.5 °C.

For `O=C(O)COc1cccc(Cl)c1` [3-chlorophenoxyacetic acid], which melting point is on record?
Its melting point is 108 °C.

For `Cc1cccc(Cl)c1` [3-chlorotoluene], which melting point is on record?
Its melting point is -48 °C.

For `N#Cc1cccc(C=O)c1` [3-cyanobenzaldehyde] [listing 1 of 2 here], which melting point is on record?
Its melting point is 77 °C.

For `N#Cc1cccc(C=O)c1` [3-cyanobenzaldehyde] [listing 2 of 2 here], which melting point is on record?
The melting point was 77 °C.

Which melting point does the source give for `N#Cc1cccc(O)c1` [3-cyanophenol] here?
Its melting point is 82 °C.

Which melting point does the source give for `N#Cc1ccc[n+]([O-])c1` [3-cyanopyridine 1-oxide] here?
Its melting point is 177 °C.

Which melting point does the source give for `CCC1(OC(C)=O)CCC2(C)C(CCC3C4CCC(=O)C4(C)CCC32)C1` (stereo not drawn) [3-ethyl-17-oxoandrostan-3-yl acetate] here?
The melting point was 126 °C.

Which melting point does the source give for `CCc1cccc(O)c1` [3-ethylphenol] here?
The melting point was -4 °C.

For `O=C(O)Cc1ccc(O)c(F)c1` [3-fluoro-4-hydroxyphenylacetic acid], which melting point is on record?
Its melting point is 132 °C.

For `Cc1ccc(B(O)O)cc1F` [3-fluoro-4-methylbenzeneboronic acid], which melting point is on record?
The melting point was 234 °C.

With `OB(O)c1cccc(F)c1` [3-fluorobenzeneboronic acid] as the molecule, how does the melting point read?
Its melting point is 214 °C.

Which melting point does the source give for `Oc1cccc(F)c1` [3-fluorophenol] here?
Its melting point is 12 °C.

With `O=C(O)Cc1cccc(F)c1` [3-fluorophenylacetic acid] as the molecule, how does the melting point read?
Its melting point is 46 °C.

For `O=Cc1cccc(B(O)O)c1` [3-formylbenzeneboronic acid], which melting point is on record?
The melting point was 111 °C.

Which melting point does the source give for `CCCCC(=O)CC` [3-heptanone] here?
Its melting point is -37 °C.

With `Cc1ncccc1O` [3-hydroxy-2-methylpyridine] as the molecule, how does the melting point read?
Its melting point is 168 °C.

Which melting point does the source give for `COc1ccc(-c2oc3c(OC)c(OC)ccc3c(=O)c2O)cc1` [3-hydroxy-4',7,8-trimethoxyflavone] here?
Its melting point is 198 °C.

With `Cc1ccc(C)c2c1C(=O)OC2O` (stereo not drawn) [3-hydroxy-4,7-dimethyl-2-benzofuran-1(3H)-one] as the molecule, how does the melting point read?
Its melting point is 158 °C.

For `CC(=O)c1cccc(O)c1` [3-hydroxyacetophenone], which melting point is on record?
The melting point was 89 °C.

Which melting point does the source give for `C[C@]12CCC(O)CC1=CC(=O)[C@@H]1[C@@H]2CC[C@]2(C)C(=O)CC[C@@H]12` (stereo partly drawn) [3-hydroxyandrost-5-ene-7,17-dione] here?
The melting point was 238 °C.

For `O=Cc1cccc(O)c1` [3-hydroxybenzaldehyde], which melting point is on record?
The melting point was 105 °C.

With `OB(O)c1cccc(O)c1` [3-hydroxybenzeneboronic acid] as the molecule, how does the melting point read?
Its melting point is 209 °C.

With `O=C(O)c1cccc(O)c1` [3-hydroxybenzoic_acid] as the molecule, how does the melting point read?
Its melting point is 203 °C.

For `Oc1cccc(I)c1` [3-iodophenol], which melting point is on record?
The melting point was 41 °C.

Which melting point does the source give for `O=C(O)CCI` [3-iodopropionic acid] here?
Its melting point is 82 °C.

Which melting point does the source give for `COc1cc(N)ccc1C` [3-methoxy-4-methylaniline] here?
Its melting point is 58 °C.

Which melting point does the source give for `COc1cccc(C(N)=O)c1` [3-methoxybenzamide] here?
The melting point was 133 °C.

Which melting point does the source give for `COc1cccc(B(O)O)c1` [3-methoxybenzeneboronic acid] here?
The melting point was 160 °C.

With `C=CC(C)CC` (stereo not drawn) [3-methyl-1-pentene] as the molecule, how does the melting point read?
Its melting point is -153 °C.

For `CC1=CC(O)(c2ccccc2)c2ccccc21` (stereo not drawn) [3-methyl-1-phenyl-1H-inden-1-ol], which melting point is on record?
Its melting point is 76 °C.

Which melting point does the source give for `CC(=O)C(C)C` [3-methyl-2-butanone] here?
The melting point was -92 °C.

With `Cc1n[nH]cc1-c1ccccc1` [3-methyl-4-phenyl-1h-pyrazole] as the molecule, how does the melting point read?
The melting point was 142 °C.

Which melting point does the source give for `Cc1cc(-c2ccccc2)[nH]n1` [3-methyl-5-phenyl-1h-pyrazole] here?
The melting point was 126 °C.

Which melting point does the source give for `Cc1cccc(B(O)O)c1` [3-methylbenzeneboronic acid] here?
Its melting point is 161 °C.

With `CC(C)CC(=O)O` [3-methylbutanoic_acid] as the molecule, how does the melting point read?
Its melting point is -30 °C.

With `CCC(C)CC` [3-methylpentane] as the molecule, how does the melting point read?
Its melting point is -118 °C.

For `CCC(C)CC(=O)O` (stereo not drawn) [3-methylvaleric acid], which melting point is on record?
The melting point was -42 °C.

For `O=Cc1ccc(N2CCCC2)c([N+](=O)[O-])c1` [3-nitro-4-(1-pyrrolidinyl)benzaldehyde], which melting point is on record?
Its melting point is 103 °C.

For `O=[N+]([O-])c1cccc(CBr)c1` [3-nitrobenzyl_bromide], which melting point is on record?
The melting point was 59 °C.

Which melting point does the source give for `O=[N+]([O-])c1cccc(O)c1` [3-nitrophenol] here?
Its melting point is 96 °C.

For `O=C=Nc1cccc([N+](=O)[O-])c1` [3-nitrophenyl isocyanate], which melting point is on record?
Its melting point is 52 °C.

With `O=[N+]([O-])c1cccc(N=C=S)c1` [3-nitrophenyl isothiocyanate] as the molecule, how does the melting point read?
Its melting point is 57 °C.

Which melting point does the source give for `C=Cc1cccc([N+](=O)[O-])c1` [3-nitrostyrene] here?
The melting point was -5 °C.

For `CCCCCC(O)CC` (stereo not drawn) [3-octanol] [listing 1 of 2 here], which melting point is on record?
The melting point was -45 °C.

With `CCCCCC(O)CC` (stereo not drawn) [3-octanol] [listing 2 of 2 here] as the molecule, how does the melting point read?
The melting point was -45 °C.

For `CC(=O)OC1CCC2C3CCC4=CC(=O)CCC4(C)C3CCC12C` (stereo not drawn) [3-oxoandrost-4-en-17-yl acetate], which melting point is on record?
The melting point was 140 °C.
